Results published in patent publication US8148391B2 (Cephalon, Inc., priority 2006, dated 2012).
Read-outs that look alike come from different tables or passages of the source.

What was measured:
[1] = molecular target: T1, baculovirus-expressed ALK (Homo sapiens, UniProt Q9UM73); assay: ALK Kinase Assay (ELISA-type, time-resolved fluorescence); assay type: biochemical
T1 construct: host or cells: baculovirus expression system
Summary of the method: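 Wells were coated with phospholipase C-γ at 10 μg/mL in Tris-buffered saline. Adding 30 ng/ml enzyme started the reaction, which ran at 37° C for 15 minutes before Eu-N1 PT66 antibody detection. Percent inhibition versus log10 concentration gave IC50 by variable-slope fit.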

[2] = molecular target: T2, c-Met (cytoplasmic domain) (Homo sapiens, UniProt P08581); assay: c-Met Kinase Assay (same methods as for ALK, with modifications); assay type: biochemical
T2 construct: 10 ng/mL c-Met (cytoplasmic domain, Invitrogen Corporation #PV3143); purchased Invitrogen Corporation PV3143
Summary of the method: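 Steps: coat wells with PLC-γ (10 μg/mL, Tris-buffered saline); add 10 ng/mL c-Met cytoplasmic domain to initiate; incubate 15 min, 37° C; detect phosphoproduct via Eu-N1 PT66 antibody.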

[3] = 1 μM ATP (Km level), read-out: ALK Activity (ALK Kinase Inhibition, IC50)
[4] = 1 μM ATP (Km level), read-out: cMet Activity (c-Met Kinase Inhibition, IC50)
[5] = ALK kinase inhibition, 1 μM ATP (Km level), read-out: ALK Activity
[6] = c-Met kinase inhibition, 1 μM ATP (Km level), read-out: cMet Activity
[7] = 1 μM ATP (Km level), 30 ng/ml ALK, 37° C., 15 minutes, read-out: ALK Activity (ALK kinase inhibition, IC50 class)
[8] = 1 μM ATP (Km level), 10 ng/mL c-Met, read-out: cMet Activity (c-Met kinase inhibition, IC50 class)
[9] = ALK kinase inhibition, 1 μM ATP, read-out: ALK Activity
[10] = c-Met kinase inhibition, 1 μM ATP, read-out: cMet Activity

T1 sequence (Q9UM73 19-1620): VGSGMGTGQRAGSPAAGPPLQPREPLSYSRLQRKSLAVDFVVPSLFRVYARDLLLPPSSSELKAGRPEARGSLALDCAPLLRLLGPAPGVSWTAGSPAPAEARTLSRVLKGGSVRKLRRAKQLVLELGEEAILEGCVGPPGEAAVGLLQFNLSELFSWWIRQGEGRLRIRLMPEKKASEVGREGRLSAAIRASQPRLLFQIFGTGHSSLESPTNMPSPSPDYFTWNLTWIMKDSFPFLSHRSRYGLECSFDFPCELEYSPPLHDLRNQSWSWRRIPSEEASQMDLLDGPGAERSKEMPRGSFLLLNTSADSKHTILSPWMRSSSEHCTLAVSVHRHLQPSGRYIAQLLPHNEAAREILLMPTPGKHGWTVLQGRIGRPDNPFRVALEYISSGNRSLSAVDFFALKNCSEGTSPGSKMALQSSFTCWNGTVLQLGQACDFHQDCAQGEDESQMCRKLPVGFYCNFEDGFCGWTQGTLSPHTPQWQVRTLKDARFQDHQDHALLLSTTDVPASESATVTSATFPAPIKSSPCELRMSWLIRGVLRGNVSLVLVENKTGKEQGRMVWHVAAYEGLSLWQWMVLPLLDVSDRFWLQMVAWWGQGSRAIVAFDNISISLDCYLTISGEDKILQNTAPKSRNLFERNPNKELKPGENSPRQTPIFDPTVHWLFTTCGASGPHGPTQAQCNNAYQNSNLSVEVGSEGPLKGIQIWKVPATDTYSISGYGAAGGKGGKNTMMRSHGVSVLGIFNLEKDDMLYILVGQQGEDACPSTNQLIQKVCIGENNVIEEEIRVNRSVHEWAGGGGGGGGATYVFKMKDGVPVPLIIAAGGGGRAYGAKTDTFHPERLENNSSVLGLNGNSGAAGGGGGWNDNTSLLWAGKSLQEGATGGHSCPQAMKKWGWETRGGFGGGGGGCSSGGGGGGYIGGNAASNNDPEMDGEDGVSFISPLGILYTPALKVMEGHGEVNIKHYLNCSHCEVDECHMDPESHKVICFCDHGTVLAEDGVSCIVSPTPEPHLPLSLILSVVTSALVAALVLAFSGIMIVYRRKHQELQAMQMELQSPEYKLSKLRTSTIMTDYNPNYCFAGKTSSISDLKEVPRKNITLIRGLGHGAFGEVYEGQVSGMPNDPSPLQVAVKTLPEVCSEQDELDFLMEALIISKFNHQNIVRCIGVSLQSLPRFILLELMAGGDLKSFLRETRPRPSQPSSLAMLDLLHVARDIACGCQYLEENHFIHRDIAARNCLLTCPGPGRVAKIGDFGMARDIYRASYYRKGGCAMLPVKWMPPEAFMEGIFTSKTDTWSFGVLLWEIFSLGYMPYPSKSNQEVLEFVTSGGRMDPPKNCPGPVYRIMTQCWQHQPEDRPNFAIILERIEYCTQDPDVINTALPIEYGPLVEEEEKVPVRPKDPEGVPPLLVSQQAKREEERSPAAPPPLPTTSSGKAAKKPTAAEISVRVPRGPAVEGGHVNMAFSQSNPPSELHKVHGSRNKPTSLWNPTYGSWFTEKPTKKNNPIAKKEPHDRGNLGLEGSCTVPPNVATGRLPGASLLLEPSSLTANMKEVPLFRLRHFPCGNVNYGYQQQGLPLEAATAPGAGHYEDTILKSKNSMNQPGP
T2 sequence (P08581 956-1390 limits assumed): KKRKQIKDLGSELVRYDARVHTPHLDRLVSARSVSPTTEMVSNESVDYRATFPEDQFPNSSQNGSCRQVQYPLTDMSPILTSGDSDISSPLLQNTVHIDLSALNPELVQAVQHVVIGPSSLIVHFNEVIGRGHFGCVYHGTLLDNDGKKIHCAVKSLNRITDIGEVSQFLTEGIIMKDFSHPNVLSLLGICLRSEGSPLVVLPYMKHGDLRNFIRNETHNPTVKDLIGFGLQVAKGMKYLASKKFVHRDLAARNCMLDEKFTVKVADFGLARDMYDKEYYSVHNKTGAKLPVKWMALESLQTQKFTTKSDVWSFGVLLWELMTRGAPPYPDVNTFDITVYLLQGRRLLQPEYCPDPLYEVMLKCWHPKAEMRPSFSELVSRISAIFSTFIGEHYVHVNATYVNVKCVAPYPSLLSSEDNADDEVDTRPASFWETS

Molecule | IC50 [1, 5] [nM] | IC50 [2, 6] [nM] | IC50 [1, 7] [nM] | IC50 [2, 8] [nM] | also measured
COCCN1CCc2ccc(Nc3ncc(Cl)c(Nc4ccccc4-c4cccc(C)n4)n3)cc2CC1 [Example 1009, 5-Chloro-N*2*-[3-(2-methoxy-ethyl)-2,3,4,5-tetrahydro-1H-benzo[d]azepin-7-yl]-N*4*-[2-(6-methyl-pyridin-2-yl)-phenyl]-pyrimidine-2,4-diamine] |  |  |  |  | IC50 [1, 3]: < 100 nM; IC50 [2, 4]: 100 to 1000 nM
CNC(=O)c1ccccc1Nc1nc(Nc2ccc3c(c2)CCN(CC(F)(F)F)CC3)ncc1Cl [Example 41, 2-{5-Chloro-2-[3-(2,2,2-trifluoro-ethyl)-2,3,4,5-tetrahydro-1H-benzo[d]azepin-7-ylamino]-pyrimidin-4-ylamino}-N-methyl-benzamide] | < 100 | < 100 |  |  | 
COc1ccc(Nc2nc(Nc3cc4c(cc3OC)CCN(CC(=O)N(C)C)CC4)ncc2Cl)c(-n2cccn2)c1 [Example 616, 2-{7-[5-Chloro-4-(4-methoxy-2-pyrazol-1-yl-phenylamino)-pyrimidin-2-ylamino]-8-methoxy-1,2,4,5-tetrahydro-benzo[d]azepin-3-yl}-N,N-dimethyl-acetamide] |  |  |  |  | IC50 [1, 3]: < 100 nM; IC50 [2, 4]: > 10000 nM
CCN1C2CCC1c1cc(Nc3ncc(Cl)c(Nc4ccccc4C(=O)NC)n3)ccc1C2 (racemic) [Example 101, (+/−)-2-[5-Chloro-2-(12-ethyl-12-aza-tricyclo[7.2.1.0*2,7*]dodeca-2(7),3,5-trien-4-ylamino)-pyrimidin-4-ylamino]-N-methyl-benzamide] | < 100 | < 100 |  |  | 
CC(C)N1C2CCC1c1cc(Nc3ncc(Cl)c(N[C@@H]4CCCC[C@H]4NS(C)(=O)=O)n3)ccc1C2 (stereo partly drawn) [Example 83, N-{(1R,2R)-2-[5-Chloro-2-(12-isopropyl-12-aza-tricyclo[7.2.1.0*2,7*]dodeca-2(7),3,5-trien-4-ylamino)-pyrimidin-4-ylamino]-cyclohexyl}-methanesulfonamide] | < 100 | 100 to 1000 |  |  | 
COCCN1CCc2ccc(Nc3ncc(Cl)c(Nc4ccc(N5CCN(C(C)C)CC5)c5c4C(=O)N(C)C5)n3)cc2CC1 [Example 950, 7-{5-Chloro-2-[3-(2-methoxy-ethyl)-2,3,4,5-tetrahydro-1H-3-benzazepin-7-ylamino]-pyrimidin-4-ylamino}-4-(4-isopropyl-piperazin-1-yl)-2-methyl-2,3-dihydro-isoindol-1-one] |  |  |  |  | IC50 [1, 3]: < 100 nM; IC50 [2, 4]: 100 to 1000 nM
CC(=O)OCCN1CCN(C)c2cc(Nc3ncc(Cl)c(N[C@@H]4CCCC[C@H]4NS(C)(=O)=O)n3)ccc2C1 [Example 476, Acetic acid 2-{8-[5-chloro-4-((1R,2R)-2-methanesulfonylamino-cyclohexylamino)-pyrimidin-2-ylamino]-1-methyl-1,2,3,5-tetrahydro-benzo[e][1,4]diazepin-4-yl}-ethyl ester] | < 100 | 1000 to 10000 |  |  | 
C#CCN1CCN(C)c2cc(Nc3ncc(Cl)c(Nc4ccccc4C(=O)NC)n3)ccc2C1 [Example 487, 2-[5-Chloro-2-(1-methyl-4-prop-2-ynyl-2,3,4,5-tetrahydro-1H-benzo[e][1,4]diazepin-8-ylamino)-pyrimidin-4-ylamino]-N-methyl-benzamide] | < 100 | < 100 |  |  | 
COCCNC1CCc2cc(Nc3ncc(Cl)c(Nc4ccccc4-n4cccn4)n3)c(OC)cc2CC1 (stereo not shown) [Example 1085, 5-Chloro-N*2*-[3-methoxy-7-(2-methoxy-ethylamino)-6,7,8,9-tetrahydro-5H-benzocyclohepten-2-yl]-N*4*-(2-pyrazol-1-yl-phenyl)-pyrimidine-2,4-diamine] |  |  | < 100 | > 10000 | 
COc1ccc(Nc2ncc(Cl)c(N[C@H]3[C@@H](C(N)=O)[C@@H]4C=C[C@H]3C4)n2)c2c1CCCC(N1CCOCC1)C2 (single isomer, unassigned) [Example 943] |  |  |  |  | IC50 [1, 3]: 1000 to 10000 nM; IC50 [2, 4]: > 10000 nM
COCCN1CCc2cc(Nc3ncc(Cl)c(Nc4ccccc4S(=O)(=O)N(C)C)n3)c(OC)cc2CC1 [Example 1165, 2-{5-Chloro-2-[8-methoxy-3-(2-methoxy-ethyl)-2,3,4,5-tetrahydro-1H-benzo[d]azepin-7-ylamino]-pyrimidin-4-ylamino}-N,N-dimethyl-benzenesulfonamide] |  |  | < 100 | 1000 to 10000 | 
CNC(=O)c1c(Cl)sc(Cl)c1Nc1nc(Nc2ccc3c(c2)CCOC(=O)N3C)ncc1Cl [Example 1774, 2,5-Dichloro-4-[5-chloro-2-(5-methyl-6-oxo-5,6,8,9-tetrahydro-7-oxa-5-aza-benzocyclohepten-2-ylamino)-pyrimidin-4-ylamino]-thiophene-3-carboxylic acid methylamide] |  |  |  |  | IC50 [1, 9]: 1000 to 10000 nM; IC50 [2, 10]: 100 to 1000 nM
CNC(=O)CN1CCc2cc(Nc3ncc(Cl)c(NC4C5C=CC(C5)C4C(N)=O)n3)c(OC)cc2CC1 (stereo not drawn) [Example 1117, (2-exo,3-exo)-3-[5-Chloro-2-(8-methoxy-3-methylcarbamoylmethyl-2,3,4,5-tetrahydro-1H-benzo[d]azepin-7-ylamino)-pyrimidin-4-ylamino]-bicyclo[2.2.1]hept-5-ene-2-carboxylic acid amide] |  |  | < 100 | > 10000 | 
CNC(=O)c1cccc(F)c1Nc1nc(Nc2ccc3c(c2)-n2c(C)cnc2CCC3)ncc1Cl [Example 1843, 2-[5-Chloro-2-(1-methyl-5,6-dihydro-4H-3,10b-diaza-benzo[e]azulen-9-ylamino)-pyrimidin-4-ylamino]-3-fluoro-N-methyl-benzamide] |  |  |  |  | IC50 [1, 9]: 100 to 1000 nM; IC50 [2, 10]: 1000 to 10000 nM
COc1cc2c(cc1Nc1ncc(Cl)c(Nc3ccc(N4CCOCC4)cc3OC)n1)CCN(C(=O)CN(C)C)CC2 [Example 1121, 1-{7-[5-Chloro-4-(2-methoxy-4-morpholin-4-yl-phenylamino)-pyrimidin-2-ylamino]-8-methoxy-1,2,4,5-tetrahydro-benzo[d]azepin-3-yl}-2-dimethylamino-ethanone] |  |  | < 100 | > 10000 | 
N-((1R,2R)-2-{5-Chloro-2-[(1R,8S)-10-(2,2,2-trifluoro-acetyl)-10-aza-tricyclo[6.3.2.0*2,7*]trideca-2,4,6-trien-4-ylamino]-pyrimidin-4-ylamino}-cyclohexyl)-methanesulfonamide and N-((1R,2R)-2-{5-Chloro-2-[(1S,8R)-10-(2,2,2-trifluoro-acetyl)-10-aza-tricyclo[6.3.2.0*2,7*]trideca-2,4,6-trien-4-ylamino]-pyrimidin-4-ylamino}-cyclohexyl)-methanesulfonamide [Example 345] | < 100 | < 100 |  |  | 
CNC(=O)CN1CCc2cc(Nc3ncc(Cl)c(Nc4c(F)cccc4C(=O)NC)n3)c(OC)cc2CC1 [Example 1116, 2-[5-Chloro-2-(8-methoxy-3-methylcarbamoylmethyl-2,3,4,5-tetrahydro-1H-benzo[d]azepin-7-ylamino)-pyrimidin-4-ylamino]-3-fluoro-N-methyl-benzamide] |  |  | < 100 | 1000 to 10000 | 
CN(C)S(=O)(=O)c1ccccc1Nc1nc(Nc2ccc3c(c2)CCC(N2CCOCC2)CC3)ncc1Cl (stereo not shown) [Example 1032, 2-[5-Chloro-2-(7-morpholin-4-yl-6,7,8,9-tetrahydro-5H-benzocyclohepten-2-ylamino)-pyrimidin-4-ylamino]-N,N-dimethyl-benzenesulfonamide] |  |  | < 100 | 100 to 1000 | 
COCCN1CCc2ccc(Nc3ncc(Cl)c(N[C@@H]4CCCC[C@H]4NS(=O)(=O)CC(F)(F)F)n3)cc2CC1 [Example 452, 2,2,2-Trifluoro-ethanesulfonic acid ((1R,2R)-2-{5-chloro-2-[3-(2-methoxy-ethyl)-2,3,4,5-tetrahydro-1H-benzo[d]azepin-7-ylamino]-pyrimidin-4-ylamino}-cyclohexyl)-amide] | < 100 | 1000 to 10000 |  |  | 
CNC(=O)c1ccc([N+](=O)[O-])cc1Nc1nc(Nc2ccc3c(c2)C(C)(C)CCC(=O)N3)ncc1Cl [Example 1235, 2-[5-Chloro-2-(5,5-dimethyl-2-oxo-2,3,4,5-tetrahydro-1H-1-benzazepin-7-ylamino)-pyrimidin-4-ylamino]-N-methyl-4-nitro-benzamide] |  |  | < 100 | 100 to 1000 | 
COCCN1CCc2ccc(Nc3ncc(Cl)c(NCC(C)(C)NS(C)(=O)=O)n3)cc2CC1 [Example 305, N-(2-{5-Chloro-2-[3-(2-methoxy-ethyl)-2,3,4,5-tetrahydro-1H-benzo[d]azepin-7-ylamino]-pyrimidin-4-ylamino}-1,1-dimethyl-ethyl)-methanesulfonamide] | 100 to 1000 | > 10000 |  |  | 
CNC(=O)c1sccc1Nc1nc(Nc2ccc3c(c2)NC(=O)CCC3)ncc1Cl [Example 1477, 3-[5-Chloro-2-(2-oxo-2,3,4,5-tetrahydro-1H-benzo[b]azepin-8-ylamino)-pyrimidin-4-ylamino]-thiophene-2-carboxylic acid methylamide] |  |  |  |  | IC50 [1, 9]: 100 to 1000 nM; IC50 [2, 10]: 100 to 1000 nM
CCNC(=O)c1ccccc1Nc1nc(Nc2cc3c(cc2OC)CN(Cc2ccccc2)CC(=O)N3)ncc1Cl [Example 1653, 2-[2-(4-Benzyl-7-methoxy-2-oxo-2,3,4,5-tetrahydro-1H-benzo[e][1,4]diazepin-8-ylamino)-5-chloro-pyrimidin-4-ylamino]-N-ethyl-benzamide] |  |  |  |  | IC50 [1, 9]: < 100 nM; IC50 [2, 10]: 1000 to 10000 nM
